This is an account of results in patent US20170088546A1 (priority 2014, published 2017).

The target in one test is Smurf-1 (Homo sapiens, UniProt Q9HCE7). Description: biochemical. In kind it is biochemical. Particulars: biochemical autoubiquitinylation TR-FRET, 45 min incubation, 8-point dose-response 3 nM to 10 uM. From the text: (§1) To determine the HECT E3 ligase selectivity of the compounds, a panel of biochemical HECT E3 ligase autoubiquitinylation assays was employed (Smurf-1, Smurf-2, WWP1, WWP2, ITCH, Nedd4, Nedd4L and E6AP). The conjugation of ubiquitin to a protein substrate is a multistep process. In an initial ATP-requiring step, a thioester bond is formed between the carboxyl terminus of ubiquitin and an internal cystein residue of the ubiquitin-activating enzyme (E1). Activated ubiquitin is then transferred to a specific cystein residue of an ubiquitin-conjugating enzyme (E2). E2s donate ubiquitin to a HECT E3 ligase (E3) from which it is transferred to the substrate protein. HECT E3 ligases can auto-ubiquitinylate. This event is detected in the TR-FRET (Time-Resolved Fluorescence Resonance Energy Transfer) assay used in this panel. The reaction mix contains E1, E2, tagged-E3, biotin-conjugated ubiquitin, the compound and ATP in a suitable buffer and is incubated for 45 minutes to allow auto-ubiquitinylation of the E3 ligase. To measure the extent of ubiquitinylated E3 ligase by TR-FRET, the donor fluorophore Europium cryptate (Eu3+ cryptate), conjugated to streptavidin which subsequently binds to biotinylated ubiquitin, and the modified allophycocyanin XL665 (HTRF® primary acceptor fluorophore) coupled to a tag-specific antibody (HA, His or GST), which recognizes the respective E3 ligase fusion proteins, are added after the reaction is complete. When these two fluorophores are brought together by a biomolecular interaction (in this case ubiquitinylation of the E3 ligase), a portion of the energy captured by the Cryptate during excitation is released through fluorescence emission at 620 nm, while the remaining energy is transferred to XL665. This energy is then released by XL665 as specific fluorescence at 665 nm. Light at 665 nm is emitted only through FRET with Europium.
Smurf-1, sequence (Q9HCE7 whole entry): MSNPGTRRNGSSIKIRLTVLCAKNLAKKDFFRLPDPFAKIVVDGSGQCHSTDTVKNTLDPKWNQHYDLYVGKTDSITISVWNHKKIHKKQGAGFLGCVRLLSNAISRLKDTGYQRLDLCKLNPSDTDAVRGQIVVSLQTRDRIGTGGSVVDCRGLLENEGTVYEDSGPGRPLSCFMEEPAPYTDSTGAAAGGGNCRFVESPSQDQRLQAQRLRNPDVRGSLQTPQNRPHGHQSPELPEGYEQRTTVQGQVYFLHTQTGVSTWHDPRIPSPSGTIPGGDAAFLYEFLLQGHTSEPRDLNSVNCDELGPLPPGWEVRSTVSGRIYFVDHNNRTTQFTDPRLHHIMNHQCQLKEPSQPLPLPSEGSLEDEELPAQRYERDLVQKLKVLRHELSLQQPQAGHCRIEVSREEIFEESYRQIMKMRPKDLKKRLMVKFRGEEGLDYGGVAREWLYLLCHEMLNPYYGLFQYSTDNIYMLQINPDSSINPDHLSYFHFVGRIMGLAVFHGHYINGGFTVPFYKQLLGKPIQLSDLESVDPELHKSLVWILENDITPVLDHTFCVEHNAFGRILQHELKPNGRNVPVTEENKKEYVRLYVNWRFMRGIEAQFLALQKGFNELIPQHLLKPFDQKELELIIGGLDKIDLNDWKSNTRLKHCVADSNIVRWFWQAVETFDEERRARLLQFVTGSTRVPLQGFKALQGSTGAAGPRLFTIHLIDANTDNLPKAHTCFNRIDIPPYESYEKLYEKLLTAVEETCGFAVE
(§2) Test and reference compounds are prepared at 180×[final] in 90% DMSO, and diluted 1:3 in 90% DMSO.
(§3) For the biochemical assay panel, 50 nl of the test compounds, reference compounds and buffer/DMSO control are transferred to the respective wells of a 384-well white GREINER “SMALL VOLUME” PS plate. The assay panel is run at room temperature on a Biomek FX liquid handling workstation. To the assay plates containing 50 nl compound or control solutions in 90% DMSO, 4.5 ul of E3 ligase solution were added per well, followed by 4.5 ul of the pre-incubated E1/E2/Ub mix or the pre-diluted ubiquitin (LOW control). Plates are shaken vigorously after each addition. In this assay the compound concentrations range from 3 nM to 10 uM in an 8-point dose-response curve.
(§4) After an incubation time of 45 min in the dark, the plates are transferred into the Pherastar fluorescence reader to measure the TR-FRET signal.
For orientation: Time-resolved FRET reads energy transfer from a long-lived donor to a nearby acceptor.

A further test addresses Smurf-2 (Homo sapiens, UniProt Q9HAU4). Description: HECT E3 ligase autoubiquitinylation TR-FRET assay, Smurf-2. In kind it is biochemical.
Description: as §1, §2, §3, §4

Setting [1] is: biochemical autoubiquitinylation TR-FRET, 45 min incubation, 8-point dose-response 3 nM to 10 uM, read-out: Smurf-2/IC50.

Like-named read-outs stand apart in the source and are kept apart here. Some results are limits rather than exact numbers.

Smurf-2, sequence (Q9HAU4 whole entry, species assumed): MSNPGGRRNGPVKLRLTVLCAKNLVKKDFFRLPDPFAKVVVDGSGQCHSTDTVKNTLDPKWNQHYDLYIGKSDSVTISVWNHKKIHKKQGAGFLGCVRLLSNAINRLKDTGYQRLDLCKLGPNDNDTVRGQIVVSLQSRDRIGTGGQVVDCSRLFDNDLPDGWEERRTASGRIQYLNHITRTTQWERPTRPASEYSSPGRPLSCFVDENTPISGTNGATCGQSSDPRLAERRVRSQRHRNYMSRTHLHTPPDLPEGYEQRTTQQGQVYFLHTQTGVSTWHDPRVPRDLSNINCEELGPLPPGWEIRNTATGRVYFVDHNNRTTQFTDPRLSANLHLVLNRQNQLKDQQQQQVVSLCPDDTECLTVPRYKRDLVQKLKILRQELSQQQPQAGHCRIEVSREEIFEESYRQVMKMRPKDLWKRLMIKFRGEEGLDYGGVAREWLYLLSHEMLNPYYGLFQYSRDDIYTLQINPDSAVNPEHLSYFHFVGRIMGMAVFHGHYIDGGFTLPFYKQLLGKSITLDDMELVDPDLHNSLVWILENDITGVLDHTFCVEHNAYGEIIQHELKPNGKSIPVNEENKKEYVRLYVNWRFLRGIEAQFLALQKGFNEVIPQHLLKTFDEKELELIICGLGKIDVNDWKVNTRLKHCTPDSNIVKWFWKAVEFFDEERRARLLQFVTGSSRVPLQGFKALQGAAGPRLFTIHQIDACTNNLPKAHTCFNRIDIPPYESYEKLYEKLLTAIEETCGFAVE

As for `Cc1c(NC(=O)c2noc3c2CCc2cc(CC(C)C)ccc2-3)c(=O)n(-c2ccccc2)n1C` [Example 1, N-(1,5-Dimethyl-3-oxo-2-phenyl-2,3-dihydro-1H-pyrazol-4-yl)-7-isobutyl-4,5-dihydronaphtho[2,1-d]isoxazole-3-carboxamide], the values for the IC50 on Smurf-1 and on Smurf-2 (setting [1]) were 0.24 µM and 5.6 µM, respectively.

With `COc1ccc2c(c1)CCCc1c(C(=O)Nc3c(C)n(C)n(-c4ccc(F)cc4)c3=O)noc1-2` [Example 2, N-(2-(4-Fluorophenyl)-1,5-dimethyl-3-oxo-2,3-dihydro-1H-pyrazol-4-yl)-8-methoxy-5,6-dihydro-4H-benzo[3,4]cyclohepta[1,2-d]isoxazole-3-carboxamide], the IC50 on Smurf-1 turned out to be 0.41 µM; on Smurf-2 (setting [1]), 8.55 µM. For `Cc1c(NC(=O)c2noc3c2CCCc2cc(OC(F)(F)F)ccc2-3)c(=O)n(-c2ccccc2F)n1C` [Example 3, N-(2-(2-Fluorophenyl)-1,5-dimethyl-3-oxo-2,3-dihydro-1H-pyrazol-4-yl)-8-(trifluoromethoxy)-5,6-dihydro-4H-benzo[3,4]cyclohepta[1,2-d]isoxazole-3-carboxamide], in that order: 0.017 µM and 0.83 µM. With `Cc1c(NC(=O)c2noc3c2CCSc2cc(OC(F)(F)F)ccc2-3)c(=O)n(C2CCCCC2)n1C` [Example 4, N-(2-Cyclohexyl-1,5-dimethyl-3-oxo-2,3-dihydro-1H-pyrazol-4-yl)-8-(trifluoromethoxy)-4,5-dihydrobenzo[6,7]thiepino[4,5-d]isoxazole-3-carboxamide], the values for the IC50 at Smurf-1 and on Smurf-2 (setting [1]) were 0.0026 µM and 0.725 µM, respectively. Taken in the same sequence, the figures for `COc1ccc2c(c1)CCCCc1c(C(=O)Nc3c(C)n(C)n(C4CCCCC4)c3=O)noc1-2` [Example 5, N-(2-Cyclohexyl-1,5-dimethyl-3-oxo-2,3-dihydro-1H-pyrazol-4-yl)-9-methoxy-4,5,6,7-tetrahydrobenzo[3,4]cycloocta[1,2-d]isoxazole-3-carboxamide] were 0.0918 µM and 8.35 µM. Consider `CCc1ccc2c(c1)CCc1c(C(=O)Nc3c(C)n(C)n(-c4ccccc4)c3=O)noc1-2` [Example 7, N-(1,5-dimethyl-3-oxo-2-phenyl-2,3-dihydro-1H-pyrazol-4-yl)-7-ethyl-4,5-dihydronaphtho[2,1-d]isoxazole-3-carboxamide], for which the IC50 on Smurf-1 was 0.568 µM; against Smurf-2 it was above 10 µM. Taken in the same sequence, the figures for `Cc1ccc(-n2c(=O)c(NC(=O)c3noc4c3CCc3cc(OC(C)C)ccc3-4)c(C)n2C)cc1` [Example 11, N-(1,5-dimethyl-3-oxo-2-(p-tolyl)-2,3-dihydro-1H-pyrazol-4-yl)-7-isopropoxy-4,5-dihydronaphtho[2,1-d]isoxazole-3-carboxamide] were 1.42 µM and above 10 µM. Consider `CCc1ccc2c(c1)CCCc1c(C(=O)Nc3c(C)n(C)n(-c4ccc(F)cc4)c3=O)noc1-2` [Example 13, 8-ethyl-N-(2-(4-fluorophenyl)-1,5-dimethyl-3-oxo-2,3-dihydro-1H-pyrazol-4-yl)-5,6-dihydro-4H-benzo[3,4]cyclohepta[1,2-d]isoxazole-3-carboxamide], for which the IC50 amounted to 0.273 µM against Smurf-1 and 7.85 µM on Smurf-2 (setting [1]).

With `COc1ccc2c(c1)CCCc1c(C(=O)Nc3c(C)n(C)n(-c4ccc(C)cc4C)c3=O)noc1-2` [Example 22, N-(2-(2,4-dimethylphenyl)-1,5-dimethyl-3-oxo-2,3-dihydro-1H-pyrazol-4-yl)-8-methoxy-5,6-dihydro-4H-benzo[3,4]cyclohepta[1,2-d]isoxazole-3-carboxamide], the values for the IC50 against Smurf-1 and on Smurf-2 were 0.495 µM and above 10 µM, respectively. As to `COc1ccc2c(c1)CCCc1c(C(=O)Nc3c(C)n(C)n(-c4ccccc4Cl)c3=O)noc1-2` [Example 27, N-(2-(2-chlorophenyl)-1,5-dimethyl-3-oxo-2,3-dihydro-1H-pyrazol-4-yl)-8-methoxy-5,6-dihydro-4H-benzo[3,4]cyclohepta[1,2-d]isoxazole-3-carboxamide], the IC50 against Smurf-1 was 0.125 µM; at Smurf-2 (setting [1]), 5.8 µM. Consider `COc1ccc2c(c1)CCCc1c(C(=O)Nc3c(C)n(C)n(-c4cccc(Cl)c4)c3=O)noc1-2` [Example 28, N-(2-(3-chlorophenyl)-1,5-dimethyl-3-oxo-2,3-dihydro-1H-pyrazol-4-yl)-8-methoxy-5,6-dihydro-4H-benzo[3,4]cyclohepta[1,2-d]isoxazole-3-carboxamide], for which the figures for the IC50 at Smurf-1 and against Smurf-2 were 0.66 µM and above 10 µM, respectively. For `COc1ccc2c(c1)CCCc1c(C(=O)Nc3c(C)n(C)n(-c4ccc(Cl)cc4)c3=O)noc1-2` [Example 29, N-(2-(4-chlorophenyl)-1,5-dimethyl-3-oxo-2,3-dihydro-1H-pyrazol-4-yl)-8-methoxy-5,6-dihydro-4H-benzo[3,4]cyclohepta[1,2-d]isoxazole-3-carboxamide], in that order: 1.06 µM and above 10 µM. In the case of `CCn1c(C)c(NC(=O)c2noc3c2CCCc2cc(OC)ccc2-3)c(=O)n1-c1ccccc1Cl` [Example 30, N-(2-(2-chlorophenyl)-1-ethyl-5-methyl-3-oxo-2,3-dihydro-1H-pyrazol-4-yl)-8-methoxy-5,6-dihydro-4H-benzo[3,4]cyclohepta[1,2-d]isoxazole-3-carboxamide], the IC50 was found to be 0.68 µM on Smurf-1 and 6.85 µM at Smurf-2 (setting [1]). Turning to `COc1ccc2c(c1)CCCc1c(C(=O)Nc3c(C)n(C)n(Cc4ccccc4)c3=O)noc1-2` [Example 32, N-(2-benzyl-1,5-dimethyl-3-oxo-2,3-dihydro-1H-pyrazol-4-yl)-8-methoxy-5,6-dihydro-4H-benzo[3,4]cyclohepta[1,2-d]isoxazole-3-carboxamide], the IC50 at Smurf-1 is 0.695 µM; against Smurf-2, above 10 µM.

Take `COc1ccc2c(c1)CCCc1c(C(=O)Nc3c(C)n(C)n(C4CCCC4)c3=O)noc1-2` [Example 34, N-(2-cyclopentyl-1,5-dimethyl-3-oxo-2,3-dihydro-1H-pyrazol-4-yl)-8-methoxy-5,6-dihydro-4H-benzo[3,4]cyclohepta[1,2-d]isoxazole-3-carboxamide]: the IC50 on Smurf-1 was 0.0292 µM; on Smurf-2 (setting [1]), 9.5 µM. For `COc1ccc2c(c1)CCCc1c(C(=O)Nc3c(C)n(C)n(C4CCCCC4)c3=O)noc1-2` [Example 35, N-(2-cyclohexyl-1,5-dimethyl-3-oxo-2,3-dihydro-1H-pyrazol-4-yl)-8-methoxy-5,6-dihydro-4H-benzo[3,4]cyclohepta[1,2-d]isoxazole-3-carboxamide], in that order: 0.0059 µM and 1.05 µM. For the compound `COc1ccc2c(c1)CCCc1c(C(=O)Nc3c(C)n(C)n(CC4CCCCC4)c3=O)noc1-2` [Example 37, N-(2-(cyclohexylmethyl)-1,5-dimethyl-3-oxo-2,3-dihydro-1H-pyrazol-4-yl)-8-methoxy-5,6-dihydro-4H-benzo[3,4]cyclohepta[1,2-d]isoxazole-3-carboxamide], the IC50 against Smurf-1 is 1.04 µM; against Smurf-2, above 10 µM. In the case of `COc1ccc2c(c1)CCCc1c(C(=O)Nc3c(C(F)(F)F)n(C)n(-c4ccccc4)c3=O)noc1-2` [Example 38, 8-methoxy-N-(1-methyl-3-oxo-2-phenyl-5-(trifluoromethyl)-2,3-dihydro-1H-pyrazol-4-yl)-5,6-dihydro-4H-benzo[3,4]cyclohepta[1,2-d]isoxazole-3-carboxamide], the IC50 on Smurf-1 is 0.865 µM; against Smurf-2, above 10 µM. In turn, `Cc1c(NC(=O)c2noc3c2CCCc2cc(OC(F)(F)F)ccc2-3)c(=O)n(Cc2ccccc2F)n1C` [Example 43, N-(2-(2-fluorobenzyl)-1,5-dimethyl-3-oxo-2,3-dihydro-1H-pyrazol-4-yl)-8-(trifluoromethoxy)-5,6-dihydro-4H-benzo[3,4]cyclohepta[1,2-d]isoxazole-3-carboxamide] showed an IC50 on Smurf-1 of 0.058 µM. Same read-out and setting: under `COc1ccc2c(c1)CCCc1c(C(=O)Nc3c(C)n(C)n(Cc4ccc(F)cc4)c3=O)noc1-2` [Example 57, N-(2-(4-fluorobenzyl)-1,5-dimethyl-3-oxo-2,3-dihydro-1H-pyrazol-4-yl)-8-methoxy-5,6-dihydro-4H-benzo[3,4]cyclohepta[1,2-d]isoxazole-3-carboxamide] stands 2.7 µM.
